Tests used:
[1] = tested on: NeuN-, S100β- and IBA-1-immunopositive cells; assay: Immunohistochemistry with stereological count of cortical and hippocampal cells; assay type: in vivo, rat; details: chronic 0.3 mg/kg × 7 sc, 72 h, vs control
Protocol: (§1) Animals received single or multiple (once per day for seven days) subcutaneous injections of 25I-NBOMe dissolved in 0.9% NaCl at a dose of 0.3 mg/kg/2 ml. The control group was treated with 0.9% NaCl solution in the same way. All procedures were performed 72 h after the last injection. The time point of 72 h was chosen due to the possible generation of neurotoxicity via oxidative stress caused by reactive oxygen species (ROS). Exceptionally, for initial 25I-NBOMe brain distribution studies, rats received the drug in the dose of 1 and 10 mg/kg and were sacrificed 15 min after the drug administration. The rat blood plasma and brain tissues were collected immediately after rats’ decapitation. LSD (0.05 mg/kg, ip) was given daily for 7 days in a volume of 1 ml/kg, while MDMA 5 mg/kg, ip was injected in a volume of 2 ml/kg every second day (overall 4 injections).
Animals were deeply anesthetized and transcardially perfused with 0.9% NaCl followed by 4% paraformaldehyde (PFA) in 0.1 M phosphate-buffered saline (PBS). After 24 h of fixation in 4% PFA (4 °C), 300 µm sections were cut through the frontal cortex (FC) and medial prefrontal cortex (mPFC) as well as hippocampus using a VT-1000S vibratome (Leica Microsystems, Heidelberg, Germany). Free-floating sections were processed for single staining of neurons with neuronal-specific nuclear protein (NeuN), glia with specific calcium-binding protein B (S100β), and microglia cells with ionized calcium-binding adaptor molecule 1 (IBA-1) antibodies. Subsequently, brain sections were rinsed and incubated for 1 h in a blocking buffer: 0.01 M PBS containing 0.3% Triton X-100 and 5% average horse, goat, or rabbit serum. After that, the sections were incubated for 48 h at 4 °C with one of the following primary antibodies: monoclonal anti-NeuN (1:1000), monoclonal anti-S100β-subunit (1:1000) or polyclonal IBA-1 (1:500) diluted in 0.01 M PBS containing 0.3% Triton X-100 (PBST) and 3% average horse or goat serum. Primary antibody binding was visualized with biotinylated secondary antibodies, the Avidin/Biotin Complex (Vectastain Elite ABC Kit) according to recommended by manufacturer concentration and 3,3′-diaminobenzidine tetrahydrochloride (DAB, 10 mg/50 ml and 0.025% H2O2) solution to give a brown color to NeuN, S100β and IBA-1-immunoreactive cells. For data presentation, digital images were captured using a digital camera CX 9000 (Bioscience Microbrightfield, Inc., Germany) attached to a Leica microscope (CTR 6000) with 2.5 and 5.0 dry or 63 × and 100 × oil objectives (Leica) that was controlled by Stereo Investigator software (v.8.10.2, 1995–2007 Bioscience Microbrightfield, Inc., Germany). The final photomicrographs were composed using the Adobe Photoshop program. The numbers of NeuN-, S100β- and IBA-1-immunopositive cells in the analyzed brain regions were estimated using unbiased stereological methods[35],[36]. Briefly, every sixth section from the systematic random sampling along the rostrocaudal axis was analyzed with a 63 ×/1.4–0.7 lens using the Stereo Investigator stereology system software. The cells appearing in the upper focal plane were omitted to prevent the counting of cell caps (− 5 μm of the topmost surface of the section). Immunopositive cells were marked when they were within the optical dissectors, which comprised a focal plane of 1600 μm^2 × 15 μm. The total numbers of NeuN, S100β- and IBA-1-immunopositive cells in the FC, mPFC, and hippocampus were automatically calculated by the Stereo Investigator software. In addition, the volume of the cortical regions and hippocampus was calculated using the Cavalieri Estimator option of the Stereo Investigator software.

[2] = tested on: p21 (CDC42/RAC)-activated kinase 1 (PAK1); parameters: method as in PMID 32597268; details: cited from earlier work
DNA = assay: Alkaline comet assay on nuclei from frontal cortex and hippocampus; assay type: in vivo, rat; details: for DNA damage (tail moment): single and repeated (× 7) 0.3 mg/kg sc, 72 h after administration, vs control
Protocol: as §1
The alkaline comet assay was performed with the use of CometAssay® Reagent Kit for Single Cell Gel Electrophoresis Assay. At 72 h after the acute and chronic treatment with 25I-NBOMe (0.3 mg/kg, sc × 7 days), LSD (0.05 mg/kg, ip × 7 days) or MDMA (5 mg/kg, ip × 4 doses every second day) animals were sacrificed by decapitation and the frontal cortex (that consist of the sum of FC and mPFC) and hippocampus were dissected. After homogenization and several purification and centrifugation stages (as described previously in[17]), the nuclear suspension was obtained using a sucrose gradient (2.8 M/2.6 M, bottom to top). The nuclear fraction was mixed with low melting point agarose and transferred immediately onto CometSlides™. The following steps, including membrane lysis, DNA unwinding, alkaline electrophoresis, and staining (SYBR® Gold), were carried out according to Trevigen CometAssay® protocol. Stained sections were acquired and analyzed under a fluorescence microscope (Nikon Eclipse50i, Japan) equipped with a camera and NIS Elements software. The data was analyzed using OpenComet software v.1.3 (cometbio.org), a plugin of ImageJ program v.1.47 (NIH, Bethesda, MD, USA). DNA damage was presented as a tail moment. Tail moment incorporates a measure of both the smallest detectable size of migrating DNA (reflected by the comet tail length) and the number of damaged pieces (represented by the intensity of DNA in the tail).

H9c2 cells = details: in vitro; cited from earlier work
[3] = tested on: primary mice cardiomyocytes; details: in vitro; cited from earlier work
QT interval = details: electrocardiography in rats; cited from earlier work
[4] = tested on: BrdU+ cells and BrdU/NeuN+ neurons in the hippocampus; details: doses 0.1, 0.3, and 1 mg/kg; vs control rats; cited from earlier work
[5] = medial prefrontal cortex (mPFC)

## COc1cc(CCNCc2ccccc2OC)c(OC)cc1I [25I-NBOMe, 4-Iodo-2,5-dimethoxy-N-(2-methoxybenzyl)phenethylamine]
[1]; frontal cortex (FC)
  Number of IBA-1-immunopositive cells (microglia): significantly decreased
  Number of NeuN cells (neurons): did not notice any significant change
  Number of S100β-immunopositive cells (astrocytes): significantly decreased
[1]; hippocampal regions CA1, CA3/CA2 and dentate gyrus
  Number of neuronal and glial cells: did not show any changes
[1]; [5]
  Number of NeuN cells (neurons): did not notice any significant change
  Number of S100β-immunopositive cells (astrocytes): significant decrease
[2]
  In vitro activity of PAK1: reduced
DNA; frontal cortex
  DNA damage (tail moment): produced DNA damage
DNA; hippocampus, 0.3 mg/kg sc × 7 vs single, 72 h
  DNA damage after multiple injections compared with a single dose: stronger than after a single dose
DNA; hippocampus
  DNA damage (tail moment): produced DNA damage
H9c2 cells
  Cell viability: decreased the viability
[3]
  Cell viability: decreased the viability
QT interval
  QT interval: prolonged
[4]
  Number of surviving BrdU+ cells and BrdU/NeuN+ neurons in the hippocampus: significantly decreased

Reference: paper PMC8861095, “Neurotoxicological profile of the hallucinogenic compound 25I-NBOMe” (Scientific Reports, 2022)
